Data as given in PubChem BioAssay (NCI).
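These data come from cells grown in 96-well plates and exposed to compound for 48 hours at five concentrations. GI50 is the concentration that inhibits growth by half. TGI denotes the concentration required for complete inhibition of growth.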

Assays:
Assay in all cases: NCI anticancer screen, dose series, 48 h; in the data active = GI50 below about 0.43 µM; inactive = the rest
[1] = test system: 786-0 renal
[2] = test system: A498 renal
[3] = test system: A549 NSCLC
[4] = test system: ACHN renal
[5] = test system: BT-549 breast
[6] = test system: CAKI-1 renal
[7] = test system: CCRF-CEM leukemia
[8] = test system: COLO 205 colon
[9] = test system: DU-145 prostate
[10] = test system: EKVX NSCLC
[11] = test system: HCC-2998 colon
[12] = test system: HCT-116 colon
[13] = test system: HCT-15 colon
[14] = test system: HL-60(TB) leukemia
[15] = test system: HOP-62 NSCLC
[16] = test system: HOP-92 NSCLC
[17] = test system: HS 578T breast
[18] = test system: HT29 colon
[19] = test system: IGROV1 ovarian
[20] = test system: K-562 leukemia
[21] = test system: KM12 colon
[22] = test system: LOX IMVI melanoma
[23] = test system: M14 melanoma
[24] = test system: MALME-3M melanoma
[25] = test system: MCF7 breast
[26] = test system: MDA-MB-231 breast
[27] = test system: MDA-MB-435
[28] = test system: MOLT-4 leukemia
[29] = test system: NCI-H226 lung
[30] = test system: NCI-H23 lung
[31] = test system: NCI-H460 lung
[32] = test system: NCI-H522 lung
[33] = test system: NCI/ADR-RES ovarian
[34] = test system: OVCAR-3 ovarian
[35] = test system: OVCAR-4 ovarian
[36] = test system: OVCAR-5 ovarian
[37] = test system: OVCAR-8 ovarian
[38] = test system: PC-3 prostate
[39] = test system: RPMI-8226 leukemia
[40] = test system: RXF 393 renal
[41] = test system: SF-268 CNS
[42] = test system: SF-295 CNS
[43] = test system: SF-539 CNS
[44] = test system: SK-MEL-2 melanoma
[45] = test system: SK-MEL-28 melanoma
[46] = test system: SK-MEL-5 melanoma
[47] = test system: SK-OV-3 ovarian
[48] = test system: SN12C renal
[49] = test system: SNB-19 CNS
[50] = test system: SNB-75 CNS
[51] = test system: SR leukemia
[52] = test system: SW-620 colon
[53] = test system: T-47D breast
[54] = test system: TK-10 renal
[55] = test system: U251 CNS
[56] = test system: UACC-257 melanoma
[57] = test system: UACC-62 melanoma
[58] = test system: UO-31 renal

O=C1c2ccccc2C(=O)c2c(N=Nc3[nH]c(=S)[nH]c3O)cccc21
18300 nM: TGI [26]
> 74800 nM: TGI [49]
630 nM: TGI [27]
> 42400 nM: TGI [9]
> 61600 nM: TGI [15]
19800 nM: TGI [42]
> 100000 nM: TGI [1] | TGI [3] | TGI [4] | TGI [7] | TGI [8] | TGI [10] | TGI [11] | TGI [12] | TGI [13] | TGI [14] | TGI [18] | TGI [19] | TGI [20] | TGI [21] | TGI [22] | TGI [23] | TGI [24] | TGI [25] | TGI [28] | TGI [31] | TGI [35] | TGI [36] | TGI [37] | TGI [38] | TGI [39] | TGI [44] | TGI [45] | TGI [46] | TGI [47] | TGI [48] | TGI [51] | TGI [52] | TGI [53] | TGI [54] | TGI [56] | TGI [57]
56700 nM: TGI [55]
98900 nM: TGI [41]
> 56900 nM: TGI [29]
2960 nM: TGI [50]
38600 nM: TGI [30]
> 21400 nM: TGI [58]
> 34500 nM: TGI [32]
active: GI50 [2] 104 nM | GI50 [7] 384 nM | GI50 [25] 357 nM | GI50 [27] 224 nM | GI50 [32] 425 nM | GI50 [34] 368 nM | GI50 [43] 424 nM | GI50 [50] 346 nM
> 75000 nM: TGI [6]
2740 nM: TGI [43]
> 57200 nM: TGI [16]
inactive: GI50 [1] 1110 nM | GI50 [3] 1750 nM | GI50 [4] 1900 nM | GI50 [5] 1120 nM | GI50 [6] 548 nM | GI50 [8] 2410 nM | GI50 [9] 984 nM | GI50 [10] 4710 nM | GI50 [11] 3080 nM | GI50 [12] 462 nM | GI50 [13] 689 nM | GI50 [14] 1130 nM | GI50 [15] 1840 nM | GI50 [16] 877 nM | GI50 [17] 462 nM | GI50 [18] 2530 nM | GI50 [19] 968 nM | GI50 [20] 434 nM | GI50 [21] 454 nM | GI50 [22] 734 nM | GI50 [23] 579 nM | GI50 [24] 769 nM | GI50 [26] 1300 nM | GI50 [28] 1100 nM | GI50 [29] 4330 nM | GI50 [30] 1670 nM | GI50 [31] 849 nM | GI50 [33] 2450 nM | GI50 [35] 2120 nM | GI50 [36] 4170 nM | GI50 [37] 2470 nM | GI50 [38] 816 nM | GI50 [39] 1090 nM | GI50 [40] 508 nM | GI50 [41] 1560 nM | GI50 [42] 983 nM | GI50 [44] 1700 nM | GI50 [45] 5200 nM | GI50 [46] 743 nM | GI50 [47] 3860 nM | GI50 [48] 1490 nM | GI50 [49] 997 nM | GI50 [51] 472 nM | GI50 [52] 496 nM | GI50 [53] 1640 nM | GI50 [54] 5230 nM | GI50 [55] 676 nM | GI50 [56] > 100000 nM | GI50 [57] 604 nM | GI50 [58] 792 nM
3210 nM: TGI [40]
> 28200 nM: TGI [33]
1130 nM: TGI [2]
47900 nM: TGI [17]
43300 nM: TGI [5]
